Patent publication US5605703A, “Liposomes encapsulating doxorubicin” (priority 1993, dated 1997)
Entries after “also recorded” stand apart in the source; their conditions may differ.

Columns and labels:
[1] = Survival of healthy BALB/C rats after i.p. administration; conditions: rat, in vivo, ip, 18 mg/kg, during the second week
Experimental: (§1) As in Example 1, VET liposomes of composition PL:PG:CHOL:DXR (50:50:50:15) and chroman 6 (7.5 mg) were prepared.
Inoculation by intraperitoneal route. Healthy BALB/C rats were treated intraperitoneally with said preparation, and the survival curves compared (FIG. 4) with the administration of free drug at the same dose, 18 mg/kg. In the experiment there was incorporated as a control a preparation of liposomes without drug, of identical characteristics and at the same lipidic concentration which would correspond to the liposomes with DXR.

[2] = Survival of healthy BALB/C rats after i.v. administration; conditions: rat, in vivo, iv, 16 mg/kg, during the second week
Experimental: as §1
Inoculation intravenously. Healthy BALB/C rats were treated intravenously with the preparation of L-DXR described and the survival curves compared (FIG. 5) with the administration of free drug of the same dose, 16 mg/kg. In the experiment there was incorporated as a control a preparation of liposomes without drug, of identical characteristics and at the same lipidic concentration which would correspond to the liposomes with DXR.

animals = conditions: literature; cited from earlier work
[3] = test system: lipid peroxidation in rat liver microsomes (NADPH); assay: Inhibition of NADPH-induced (enzymatic) lipid peroxidation in rat liver microsomes, TBARS test; format: biochemical, Sprague-Dawley male rat; conditions: for IC50 / inhibition of lipid peroxidation, NADPH (in words): rat liver microsomes; for IC50: 0.1 mM NADPH, one hour at 37° C., read-out: IC50 TBARS production, NADPH
Experimental: (§2) Incubations. Suspension of Sprague-Dawley male rat liver microsomes in Krebs-Ringer (KRP) phosphates buffer, were prepared in accordance with the method of Fraga et al.: Free Radical Biol. Med. (1988) 4, 155-161. For the experiences of lipidic peroxidation induced enzymatically, microsomal protein (2 mg) in 1 ml of KRP buffer was incubated for one hour at 37° C. in the presence of 0.1 mM NADPH and 2 μl of DMSO containing the compound to be evaluated at the appropriate concentration. In the experiments where the incubations were prolonged up to three hours, every hour 0.1 ml of NADPH 2 mM was added to the incubation medium. For the experiments of lipid peroxidation induced chemically, 2 mg. of microsomal protein in 1 ml of KRP buffer were incubated for 30 min. at 37° C. in the presence of FeSO4 50/μM, ascorbic acid 0.5 mM and 2 μl of DMSO containing the compound to be evaluated at the appropriate concentration. In all cases, the incubations were arrested by addition of 0.2 ml of BHT at 4%.
(§3) TBARS test. […]. (1988) 4, 155-161 (herein incorporated by reference). Briefly, 0.5 ml of dodecyl sodium sulphate at 3% was added to proportions of 0.5 ml of the microsomal incubations. After mixing them, 2 ml of HC1 0.1 N, 0.3 ml of phosphotungstic acid and 1 ml of 2-thiobarbituric acid were added. The mixture was kept 30 min. at 100° C., and the TBARS were extracted with 3 ml of 1-butanol. After centrifugation, the fluorescence of the butanol phase was determined exciting at 515 nm and reading at 555 nm. The values obtained were expressed as nanomoles of TBARS (malondialdehyde equivalents). The standards of malondialdehyde were prepared from 1,1,3,3-tetramethoxypropane. The experiments were performed in triplicate. The values of […] were determined by representation of the percentage of inhibition vs. log [I], using at least five different concentrations. The values of the percentages of inhibition were referred to the determination carried out in presence of DMSO (2 μl).
(§4) In Table I the results of the inhibition of the lipidic peroxidation shown by several 2.2-dimethylchromans and chromans, fluorated or not, in incubations of rat liver microsomes induced by NADPH or stimulated by Fe-ascorbate, are shown, expressed as values of […] for the inhibition of the production of TBARS.

[4] = test system: lipid peroxidation in rat liver microsomes (Fe-ascorbate); assay: Inhibition of Fe-ascorbate stimulated (chemical) lipid peroxidation in rat liver microsomes, TBARS test; format: biochemical, Sprague-Dawley male rat; conditions: for effect with Fe-ascorbate compared with the tests depending on NADPH: Fe-ascorbate vs. NADPH; for inhibition of lipid peroxidation, Fe-ascorbate (in words) / IC50: rat liver microsomes; for IC50: FeSO4, ascorbic acid 0.5 mM, 30 min. at 37° C., read-out: IC50 TBARS production, Fe-ascorbate; for percentage of inhibition of TBARS production, Fe-ascorbate: at a 0.5 mM concentration
Experimental: as §2, §3, §4

[5] = Encapsulation of DXR in liposomes (Sephadex G-50M); format: physicochemical; conditions: VET liposomes PL:PG:CHOL:DXR (50:50:50:15), anti-oxidant varied
Experimental: A chloroform solution was prepared containing the selected lipids (table II) and 7.5 mg. of the chroman 6 in a round-bottomed flask. Afterward proceeding to the elimination of the organic solvent by means of roto-evaporation, additionally the traces of solvent were eliminated by passage of N2 or by lyophilization. The lipidic film thus obtained was hydrated, with 3 ml of NaCl solution at 0.9% containing DXR, by agitation in a vibromixer at intervals of 30 sec., followed by resting in a bath maintained at 60° C. for the same amount of time and an effective agitation up to 10 min. Thus a liposomal dispersion was obtained containing preferably multilamelar vesicles (MLVs). The liposomal solution was sonicated by ultrasonic irradiation by means of a titanium probe until a change in the turbidity was observed. The protocol of sonication was carried out in relays of 2 min. of sonication and one minute resting under atmosphere of N2 in an ice water bath. In order to eliminate the particles of titanium produced during the sonication, it was centrifuged for 20 min. at 3000 rpm. The liposomal suspension thus obtained contained small unilamelar liposomes (SUVs).
Alternatively, the suspension of multilamelar liposomes obtained as described was submitted to extrusion through polycarbonate filters of 0.4 and 0.2 μm in diameter of pore subsequently, obtaining liposomes designated VET.
The determination of the percentage of encapsulation of DXR was done by chromatographic separation of a portion of the liposomal suspension, by means of Sephadex G-50M utilizing NaCl 0.9% as eluent.
Proceeding in a manner analogous to that described in EXAMPLE 2 to obtain VET liposomes utilizing a ratio by weight of PL:PG:CHOL:DXR of 50:50:50:15 and varying the anti-oxidant agent employed. The results obtained show (Table III) that no appreciable differences exist in the percentages of encapsulation when different inhibitors of the lipidic peroxidation were utilized.

[6] = test system: lipid peroxidation in rat liver microsomes (NADPH); assay: Persistence of the inhibition of lipid peroxidation over three hours in rat liver microsomes with NADPH; format: biochemical, Sprague-Dawley male rat; conditions: compounds 5, 6, 8, 9 at 15, 1, 6, 5 μM
Experimental: FIG. 1 illustrates the formulas of the chromenes (1-4), chromans (5-9) and compound of reference, BHT, (10) studied as inhibitors of the lipidic peroxidation. […] The values shown are the average +/-SD of sextuplicate tieterminations that were performed. The difference between consecutive hours are marked by asterisks: * P<0.001, ** P<0.005.
as §2
TBARS test. When the incubations were completed, the lipid peroxidation was evaluated by means of the production of substances which react with thiobarbituric acid (TBARS) as Fraga et al described.: Free Radical Biol. Meal. (1988) 4, 155-161 (herein incorporated by reference). Briefly, 0.5 ml of dodecyl sodium sulphate at 3% was added to proportions of 0.5 ml of the microsomal incubations. […] After centrifugation, the fluorescence of the butanol phase was determined exciting at 515 nm and reading at 555 nm. The values obtained were expressed as nanomoles of TBARS (malondialdehyde equivalents). […] The values of […] were determined by representation of the percentage of inhibition vs. log [I], using at least five different concentrations. […]

rat liver microsomes = format: in vitro ADME, Sprague-Dawley male rat

Structure (SMILES)	mortality [1] [%]	mortality [2] [%]	toxicity in animals (in words) (animals)	IC50 [3] [µM]	effect with Fe-ascorbate compared with the tests depending on NADPH [4]	inhibition of lipid peroxidation, Fe-ascorbate (in words) [4]	IC50 [4] [µM]	% encapsulation (Table III) [5] [%]	persistence of the inhibiting activity [6]	inhibition of lipid peroxidation, NADPH (in words) [3]	inhibiting activity compared with another compound, Fe-ascorbate [4]	percentage of inhibition of TBARS production, Fe-ascorbate [4] [%]	inhibiting activity compared with another compound, NADPH [3]	metabolite detected (rat liver microsomes)
COc1cccc2c1C(=O)c1c(O)c3c(c(O)c1C2=O)C[C@@](O)(C(=O)CO)C[C@@H]3O[C@H]1C[C@H](N)[C@H](O)[C@H](C)O1 [F-DXR]	100	100	cardiomyopathy	–	–	–	–	–	–	–	–	–	–	–
COc1cc2c(cc1O)C=CC(C)(C)O2 [compound 2]	–	–	–	1.4	six times smaller	potent inhibiting effect	3.8	85	–	–	–	–	–	–
CC1(C)CCc2cc(O)c(OCC(F)(F)F)cc2O1 [compound 9]	–	–	–	3.9	–	–	5.3	83	decreases during the second and the third hour of incubation; also recorded: less pronounced than that obtained for the compound 6; also recorded: more persistent intrinsic activity	the highest inhibiting activity of the chroman fluorates tested	slightly inferior to that shown by hydroxychroman 6	–	–	–
Cc1cc(C(C)(C)C)c(O)c(C(C)(C)C)c1 [compound 10, reference compound]	–	–	–	0.8	A similar relation	–	2.7	–	–	–	–	–	–	–
COc1cc2c(cc1OC)OC(C)(C)CC2 [compound 5]	–	–	–	15	–	inactive	–	86	remains constant; also recorded: anti-oxidant efficiency more metabolic-dependent	–	–	17	–	–
COc1cc2c(cc1O)CCC(C)(C)O2 [compound 6]	–	–	–	0.3	six times smaller	potent inhibiting effect; also recorded: the greatest inhibiting power	1.9	87	–	–	superior to that of the BHT; also recorded: an order of magnitude greater than that of the compound 7	–	an order of magnitude greater than that of the compound 7	–
COc1cc2c(cc1O)OC(C)(C)CC2 [compound 7]	–	–	–	3.4	six times smaller	potent inhibiting effect	19	88	–	–	–	–	–	–
CC1(C)C=Cc2cc(O)c(OCC(F)(F)F)cc2O1 [compound 4]	–	–	–	3.7	–	–	6	84	–	the greatest inhibiting activity	–	–	–	detection as a metabolite in the incubations with NADPH
COc1cc2c(cc1OCC(F)(F)F)OC(C)(C)CC2 [compound 8]	–	–	–	6	–	does not present inhibiting activity per se	–	90	slightly higher during the second hour of incubation; also recorded: significant drop in the inhibiting activity during the third hour; also recorded: not significant when it is compared with the percentage of inhibition determined for the first hour of incubation (P>0.005); also recorded: anti-oxidant efficiency more metabolic-dependent	–	–	5	nine times greater than that corresponding to chromene 3	–
COc1cc2c(cc1OC)OC(C)(C)C=C2 [compound 1]	–	–	–	11.4	–	inactive	–	89	–	–	–	35	–	–
